We go through one molecule from paper PMC12505902, “Inhibitors of trehalose-6-phosphate synthase activity in fungal pathogens compromise thermal tolerance pathways” (mBio, 2025).

Common to all, as to type: cell-based
For experiment [1], the system named is C. deneoformans. Briefly: Zone of inhibition assay. On the procedure: To test this hypothesis, we performed zone of inhibition studies in the C. deneoformans background (Fig. S8A).
123 hours. All dose- response assays were performed in biological triplicate with a minimum of three
124 technical replicates. Growth, as determined by a reading of absorbance at 600 nm, was
125 normalized to untreated controls and was corrected for the absorbance of 4456dh in the YPD
(§1) 126 medium. Growth was plotted as a heat map using Excel.
(§2) 127 Wild-t y pe C. neoformans strains H99, wild-type C. deneoformans JEC21 and wild- t y pe C. gattii
(§3) 128 R265 were cultured overnight in YPD (yeast-peptone- dextrose) medium at 30 °C. Growth of the
(§4) 129 overnight cultures was quantified by measuring the OD600 and corrected for the background
(§5) 130 absorbance of the medium. Antifungal potency for 4456dh was assessed by minimum inhibitory
131 concentration (MIC) dose-response assays performed under standard Clinical and Lab Standards […]
(§6) 137 replicates. Growth, as determined by a reading of absorbance at 600 nm, was normalized to
(§7) 138 untreated controls and was corrected for the absorbance of 4456dh in the YPD medium. […]
(§8) 139 minimum inhibitory concentration causing 80% growth reduction, or MIC80, was determined based […]
149 mM 4456dh. The OD600 was determined followed by dilution of overnight cultures to an equivalent […]
(§9) 157 Optical density (OD600) was determined with an Infinite PRO plate reader ( Tecan). […]

In a further experiment the test system is C. gattii. Briefly: Fungicidal spot assay on compound-free YPD plates. To be noted: 37°C exposure. On the procedure: (§10) Fig 4 4456dh inhibits the growth of Candida and Cryptococcus species. Two-fold dose response assays were performed against (A) C. albicans at 42°C and C. auris at 39°C, (B) C. glabrata at 42°C, and (C) C. neoformans, C. deneoformans, and C. gattii at 37°C. 4456dh was administered at the concentrations indicated. Cultures were grown in YPD at the listed temperatures for 48 hours for Candida species and 72 hours for Cryptococcus species. Experimental temperatures reflect the temperatures at which the fungi experience heat stress. Left: relative growth of treated samples was calculated by averaging technical triplicates and normalizing the OD600 of each treated well to the average OD600 of the untreated WT controls, after the absorbance due to the compound was subtracted. The MIC80 values, calculated based on the OD600 values, are indicated in the white text on each heat map. Right: representative spot assays show the ability of cells to grow after exposure to 4456dh and indicate fungicidal activity of 4456dh. TEXT PRINTED IN THE PICTURE: (A) 4456dh: C. albicans 42 °C: 13 mM; C. auris 39 °C: 7 mM | (B) 4456dh: C. glabrata 42 °C: 7.8 μM | (C) 4456dh: C. neoformans 37 °C: 7 mM; C. deneoformans 37 °C: 3 mM; C. gattii 37 °C: 7 mM DOUBTS OF THE COPYIST ABOUT THIS PICTURE: 4456dh, all panels: the picture prints no measure name with the white values on the heat maps, so each value is given only with its organism and temperature
(§11) We next tested the activity of 4456dh on Cryptococcus species at 37°C.
(§12) 123 hours. […]
as §1, §2, §3, §4, §5
(§13) 131 concentration (MIC) dose-response assays performed under standard Clinical and Lab Standards
(§14) 132 Institute (CLSI) conditions. A volume of 125 µL from each cell suspension was dispensed into the
(§15) 133 wells of 96-well flat-bottom microtiter plates (Corning). An additional 25 µL of 4456dh from a series
(§16) 134 of dilutions from the 157 mM stock solution prepared in water was added to each well. Following […]
as §6, §7, §8, §9

A further experiment deals with C. neoformans. Briefly: Fungicidal spot assay on compound-free YPD plates. The note with it: 37°C exposure. On the procedure: as §10, §11, §12, §1, §2, §3, §4, §5, §13, §14, §15, §16, §6, §7, §8, §9
Experiment [2] has as its system C. deneoformans. Briefly: Fungicidal spot assay on compound-free YPD plates. On the procedure: as §10, §11, §12, §1, §2, §3, §4, §5, §13, §14, §15, §16, §6, §7, §8, §9
The next experiment has as its system C. gattii (R265). Briefly: MIC dose-response assay in YPD. To be noted: Cryptococcus gattii. On the procedure: as §10, §11, §12, §1, §2, §3, §4, §5, §13, §14, §15, §16, §6, §7, §8, §9
A further experiment deals with C. neoformans (H99). Briefly: MIC dose-response assay in YPD. To be noted: Cryptococcus neoformans. On the procedure:
as §10, §11, §12, §1, §2, §3, §4, §5, §13, §14, §15, §16, §6, §7, §8, §9

Where [3] appears, read: Supplemental Table 5, This publication.

As to `Cn1cc(-c2csc(NC(=O)Cc3ccccn3)n2)cn1` [Compound 4456dh], the zone of inhibition entry is on record as “diffuse yet visible zone of inhibition” with C. deneoformans [1] (C. deneoformans tps1Δ cells, 30°C) and “distinct zone of inhibition” in the experiment with C. deneoformans [1] (C. deneoformans wild-type (JEC21, JEC20), 37°C). The fungicidal activity result in the experiment with C. gattii is “Fungicidal activity of 4456dh was also detected”; in the experiment with C. neoformans, “Fungicidal activity of 4456dh was also detected”; in the experiment on C. deneoformans [2] (30°C, 13 mM 4456dh) it was “displayed fungicidal activity”; in the experiment on C. deneoformans [2] (37°C exposure), “Fungicidal activity of 4456dh was also detected”. Moreover, the MIC80 came out at 7 mM in the experiment on C. gattii (R265) (37°C, YPD, 72 hours); 2780 µg/mL with C. gattii (R265) (setting [3]); 7 mM against C. neoformans (H99) (37°C, YPD, 72 hours); 2780 µg/mL against C. neoformans (H99) (setting [3]).

What is called MIC80 is an inhibitory concentration at the 80% level, which refers to growth in some studies and to a panel of isolates in others. A higher MIC80 goes with weaker potency.
